How the values were obtained:
Experiment in all cases: relative viability (nuclei count vs DMSO), 5 days (fraction); higher = more cells survive
[1] = compound: O=C(/C=C/c1ccccc1)NC(NC(=S)Nc1cccc2cccnc12)C(Cl)(Cl)Cl [Salubrinal] + CS(=O)(=O)CCNCc1ccc(-c2ccc3ncnc(Nc4ccc(OCc5cccc(F)c5)c(Cl)c4)c3c2)o1 [Lapatinib] (partner 2 µM)
In short: (§1)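 Relative viability divides the nuclei count in treated wells by that in vehicle wells. Lung cancer cell lines were seeded in 1536-well plates, dosed by pin tool the next day, and fixed and stained after 5 days in one step with final 0.05% Triton X-100, 1% formaldehyde and 1 ug/ml Hoechst. Dosing was a single drug or a fixed anchor-drug dose plus five library-drug doses (not always all listed) in √10 steps, and values are medians of duplicate plates imaged at 4×.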

[2] = compound: O=C(/C=C/c1ccccc1)NC(NC(=S)Nc1cccc2cccnc12)C(Cl)(Cl)Cl [Salubrinal] + CC(C)C[C@H](NC(=O)[C@H](Cc1ccccc1)NC(=O)c1cnccn1)B(O)O [Bortezomib] (partner 0.002 µM)
In short: as §1

[3] = compound: Cc1ccc2nc(NCCN)c3ncc(C)n3c2c1 + Cc1cc(Nc2cc(N3CCN(C)CC3)nc(Sc3ccc(NC(=O)C4CC4)cc3)n2)n[nH]1 [Tozasertib] (partner 0.1 µM)
In short: as §1

[4] = compound: Cc1ccc2nc(NCCN)c3ncc(C)n3c2c1 + N=C(N)NC(=N)NCCc1ccccc1 [Phenformin] (partner 250 µM)
In short: as §1

Cell Line	relative viability ([1]; first compound 0.08 µM)	relative viability ([1]; first compound 0.253 µM)	relative viability ([1]; first compound 0.8 µM)	relative viability ([1]; first compound 2.53 µM)	relative viability ([1]; first compound 8 µM)	relative viability ([2]; first compound 0.08 µM)	relative viability ([2]; first compound 0.253 µM)	relative viability ([2]; first compound 0.8 µM)	relative viability ([2]; first compound 2.53 µM)	relative viability ([2]; first compound 8 µM)	relative viability ([3]; first compound 0.04 µM)	relative viability ([3]; first compound 0.1265 µM)	relative viability ([3]; first compound 0.4 µM)	relative viability ([3]; first compound 1.265 µM)	relative viability ([3]; first compound 4 µM)	relative viability ([4]; first compound 0.04 µM)	relative viability ([4]; first compound 0.1265 µM)	relative viability ([4]; first compound 0.4 µM)	relative viability ([4]; first compound 1.265 µM)	relative viability ([4]; first compound 4 µM)
201T	1.03	1.06	1.06	1.07	1.06	1.14	1.06	1.14	1.09	1.11	0.985	0.976	0.908	0.971	0.913	0.46	0.417	0.452	0.465	0.453
A549	1.08	0.954	1.03	0.939	0.886											0.209	0.199	0.166	0.111	0.118
A-427	1.09	0.966	1.11	0.961	1.03	0.96	0.908	1.12	0.961	1.06	0.229	0.21	0.185	0.212	0.196	0.388	0.308	0.35	0.265	0.296
ABC-1	1.46	1.35	1.17	1.25	1.15	0.322	0.35	0.363	0.303	0.281	0.171	0.15	0.171	0.187	0.22	0.236	0.27	0.297	0.248	0.226
BEN	0.677	0.732	0.751	0.767	0.894	0.716	0.721	0.979	0.941	0.909	0.501	0.436	0.498	0.469	0.559	0.288	0.265	0.293	0.247	0.296
CAL-12T	0.804	0.688	0.629	0.663	0.636	0.983	0.899	1.54	0.915	0.998	0.288	0.353	0.376	0.291	0.269	0.567	0.491	0.536	0.59	0.542
COR-L23	1.38	0.626	1.37	1	0.539	1.16	0.786	1.12	0.998	0.809	0.202	0.243	0.218	0.135	0.173	0.464	0.448	0.45	0.468	0.37
COR-L 105	0.377	0.317	0.395	0.389	0.35	0.756	0.829	0.86	0.816	0.604	0.374	0.355	0.294	0.353	0.302	0.647	0.555	0.502	0.487	0.425
Calu-6	1.28	1.03	1.27	1.08	1.06	1.18	0.856	1.11	1.01	0.918										
ChaGo-K-1						1.06	0.759	1.6	1.2	1.03	0.258	0.253	0.253	0.236	0.238	0.534	0.544	0.485	0.412	0.435
EBC-1	0.191	0.289	0.187	0.167	0.198	0.719	0.544	0.504	0.501	0.466										
EKVX	0.2	0.239	0.199	0.181	0.216	1.14	0.821	1.17	1.06	1.02	0.433	0.359	0.366	0.349	0.407	0.25	0.236	0.241	0.239	0.248
EMC-BAC-2	0.823	0.815	0.947	0.865	0.938	1.16	0.974	1.09	1.16	1.17	0.297	0.282	0.313	0.265	0.288	0.518	0.562	0.499	0.536	0.54
EPLC-272H	0.838	0.804	1.32	0.93	0.761	0.884	0.756	1.11	1.1	0.855	0.249	0.33	0.348	0.237	0.251	0.317	0.397	0.383	0.373	0.294
H3255	0.241	0.253	0.191	0.233	0.226	0.816	0.826	1.23	0.767	0.761	0.703	0.55	0.629	0.477	0.455	0.396	0.343	0.396	0.355	0.382

From the supplement of paper PMC10307832
